Earlier results on 2 molecules are cited in US20110071136A1, “NOVEL TRICYCLIC PROTEIN KINASE MODULATORS” (CYLENE PHARMACEUTICALS, INC, priority 2009, published 2011).

Data set [1] concerns MV-4-11 (AML). To be noted: MV-4-11 (AML) xenograft model; 2008 AACR Annual Meeting, Abstract No. 4974.
The test system of data set [2] is MOLM-13 (AML). To be noted: MOLM-13 (AML) xenograft model; 2008 AACR Annual Meeting, Abstract No. 4974.
Data set [3] has as its system leukemic cells from AML patients. To be noted: Fedorov et al., PNAS 104(51), 20523-28.

As to `CN1CCC(CNc2ccc3ncc(-c4cccc(OC(F)(F)F)c4)n3n2)CC1` [SGI-1776], the tumor regression result in data set [1] and in data set [2] was “significant tumor regression” each time.

Consider `CN(C)C[C@@H]1CCn2cc(c3ccccc32)C2=C(C(=O)NC2=O)c2cn(c3ccccc23)CCO1` [Ly5333'531], for which the “cell growth and cell death” value in data set [3] was “suppressed cell growth and induced cell death”.
